According to PubChem BioAssay (NCI):
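In this assay, cells in 96-well plates receive the compound at five concentrations for 48 hours. Endpoints are linearly interpolated between the surrounding concentrations. TGI: concentration producing complete growth inhibition.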

Assays:
Test in all cases: NCI tumour cell line growth inhibition, 48 h
OVCAR-5 ovarian = test system: OVCAR-5 ovarian
UACC-62 melanoma = test system: UACC-62 melanoma
CAKI-1 renal = test system: CAKI-1 renal
SNB-19 CNS = test system: SNB-19 CNS
SK-MEL-28 melanoma = test system: SK-MEL-28 melanoma
SR leukemia = test system: SR leukemia
PC-3 prostate = test system: PC-3 prostate
NCI-H460 lung = test system: NCI-H460 lung
NCI-H522 lung = test system: NCI-H522 lung
DU-145 prostate = test system: DU-145 prostate
CCRF-CEM leukemia = test system: CCRF-CEM leukemia
SF-295 CNS = test system: SF-295 CNS
NCI-H226 lung = test system: NCI-H226 lung
ACHN renal = test system: ACHN renal
IGROV1 ovarian = test system: IGROV1 ovarian
HS 578T breast = test system: HS 578T breast
HOP-62 NSCLC = test system: HOP-62 NSCLC
HL-60(TB) leukemia = test system: HL-60(TB) leukemia
T-47D breast = test system: T-47D breast
786-0 renal = test system: 786-0 renal
MDA-N = test system: MDA-N
SF-539 CNS = test system: SF-539 CNS
SK-MEL-2 melanoma = test system: SK-MEL-2 melanoma
U251 CNS = test system: U251 CNS
SK-MEL-5 melanoma = test system: SK-MEL-5 melanoma
NCI-H23 lung = test system: NCI-H23 lung
SN12C renal = test system: SN12C renal
MALME-3M melanoma = test system: MALME-3M melanoma
UACC-257 melanoma = test system: UACC-257 melanoma
RPMI-8226 leukemia = test system: RPMI-8226 leukemia
LOX IMVI melanoma = test system: LOX IMVI melanoma
OVCAR-8 ovarian = test system: OVCAR-8 ovarian
MDA-MB-435 = test system: MDA-MB-435
HT29 colon = test system: HT29 colon
EKVX NSCLC = test system: EKVX NSCLC
MCF7 breast = test system: MCF7 breast
HCT-116 colon = test system: HCT-116 colon
KM12 colon = test system: KM12 colon
A549 NSCLC = test system: A549 NSCLC
HOP-92 NSCLC = test system: HOP-92 NSCLC
RXF 393 renal = test system: RXF 393 renal
COLO 205 colon = test system: COLO 205 colon
M14 melanoma = test system: M14 melanoma
A498 renal = test system: A498 renal
HCT-15 colon = test system: HCT-15 colon
OVCAR-3 ovarian = test system: OVCAR-3 ovarian
SF-268 CNS = test system: SF-268 CNS
OVCAR-4 ovarian = test system: OVCAR-4 ovarian
SW-620 colon = test system: SW-620 colon
HCC-2998 colon = test system: HCC-2998 colon
MDA-MB-231 breast = test system: MDA-MB-231 breast
K-562 leukemia = test system: K-562 leukemia
TK-10 renal = test system: TK-10 renal
UO-31 renal = test system: UO-31 renal
NCI/ADR-RES ovarian = test system: NCI/ADR-RES ovarian
MOLT-4 leukemia = test system: MOLT-4 leukemia
SK-OV-3 ovarian = test system: SK-OV-3 ovarian
SNB-75 CNS = test system: SNB-75 CNS

CC1CC(C)CC(NC2=NCCO2)C1 (configuration not stated)
TGI (OVCAR-5 ovarian): > 100 µM
TGI (UACC-62 melanoma): > 100 µM
TGI (CAKI-1 renal): > 100 µM
TGI (SNB-19 CNS): > 100 µM
TGI (SK-MEL-28 melanoma): > 100 µM
TGI (SR leukemia): > 100 µM
TGI (PC-3 prostate): > 100 µM
TGI (NCI-H460 lung): > 100 µM
TGI (NCI-H522 lung): > 100 µM
TGI (DU-145 prostate): > 100 µM
TGI (CCRF-CEM leukemia): > 100 µM
TGI (SF-295 CNS): > 100 µM
TGI (NCI-H226 lung): > 100 µM
TGI (ACHN renal): > 100 µM
TGI (IGROV1 ovarian): > 100 µM
TGI (HS 578T breast): > 100 µM
TGI (HOP-62 NSCLC): > 100 µM
TGI (HL-60(TB) leukemia): > 100 µM
TGI (T-47D breast): > 100 µM
TGI (786-0 renal): > 100 µM
TGI (MDA-N): > 100 µM
TGI (SF-539 CNS): > 100 µM
TGI (SK-MEL-2 melanoma): > 100 µM
TGI (U251 CNS): > 100 µM
TGI (SK-MEL-5 melanoma): > 100 µM
TGI (NCI-H23 lung): > 100 µM
TGI (SN12C renal): > 100 µM
TGI (MALME-3M melanoma): > 100 µM
TGI (UACC-257 melanoma): > 100 µM
TGI (RPMI-8226 leukemia): > 100 µM
TGI (LOX IMVI melanoma): > 100 µM
TGI (OVCAR-8 ovarian): > 100 µM
TGI (MDA-MB-435): > 100 µM
TGI (HT29 colon): > 100 µM
TGI (EKVX NSCLC): > 100 µM
TGI (MCF7 breast): > 100 µM
TGI (HCT-116 colon): > 100 µM
TGI (KM12 colon): > 100 µM
TGI (A549 NSCLC): > 100 µM
TGI (HOP-92 NSCLC): > 100 µM
TGI (RXF 393 renal): > 100 µM
TGI (COLO 205 colon): > 100 µM
TGI (M14 melanoma): > 100 µM
TGI (A498 renal): > 100 µM
TGI (HCT-15 colon): > 100 µM
TGI (OVCAR-3 ovarian): > 100 µM
TGI (SF-268 CNS): > 100 µM
TGI (OVCAR-4 ovarian): > 100 µM
TGI (SW-620 colon): > 100 µM
TGI (HCC-2998 colon): > 100 µM
TGI (MDA-MB-231 breast): > 100 µM
TGI (K-562 leukemia): > 100 µM
TGI (TK-10 renal): > 100 µM
TGI (UO-31 renal): > 100 µM
TGI (NCI/ADR-RES ovarian): > 100 µM
TGI (MOLT-4 leukemia): > 100 µM

COc1cc(C(=O)NC(CCN)(c2ccccc2)c2ccccc2)cc(OC)c1OC
TGI (OVCAR-5 ovarian): > 100 µM
TGI (UACC-62 melanoma): > 31.6 µM
TGI (CAKI-1 renal): 87.6 µM
TGI (SNB-19 CNS): > 100 µM
TGI (SK-MEL-28 melanoma): 21.4 µM
TGI (SK-OV-3 ovarian): > 31.6 µM
TGI (SR leukemia): 24 µM
TGI (PC-3 prostate): > 100 µM
TGI (NCI-H460 lung): > 31.6 µM
TGI (NCI-H522 lung): > 100 µM
TGI (DU-145 prostate): > 31.6 µM
TGI (SF-295 CNS): > 31.6 µM
TGI (NCI-H226 lung): 98.9 µM
TGI (ACHN renal): > 31.6 µM
TGI (IGROV1 ovarian): > 31.6 µM
TGI (HS 578T breast): > 92.6 µM
TGI (HOP-62 NSCLC): > 31.6 µM
TGI (SNB-75 CNS): 30.4 µM
TGI (HL-60(TB) leukemia): 18.5 µM
TGI (T-47D breast): > 31.6 µM
TGI (786-0 renal): > 31.6 µM
TGI (MDA-N): > 100 µM
TGI (SF-539 CNS): > 100 µM
TGI (SK-MEL-2 melanoma): > 100 µM
TGI (U251 CNS): > 100 µM
TGI (SK-MEL-5 melanoma): 18 µM
TGI (NCI-H23 lung): > 31.6 µM
TGI (SN12C renal): > 31.6 µM
TGI (MALME-3M melanoma): 18.4 µM
TGI (UACC-257 melanoma): 22.3 µM
TGI (LOX IMVI melanoma): > 31.6 µM
TGI (OVCAR-8 ovarian): > 31.6 µM
TGI (MDA-MB-435): > 31.6 µM
TGI (HT29 colon): 28.3 µM
TGI (EKVX NSCLC): > 31.6 µM
TGI (MCF7 breast): > 31.6 µM
TGI (HCT-116 colon): > 95.3 µM
TGI (KM12 colon): > 31.6 µM
TGI (A549 NSCLC): > 31.6 µM
TGI (HOP-92 NSCLC): 25.5 µM
TGI (RXF 393 renal): 27.6 µM
TGI (COLO 205 colon): 19 µM
TGI (M14 melanoma): 19.1 µM
TGI (A498 renal): 17.5 µM
TGI (HCT-15 colon): > 31.6 µM
TGI (OVCAR-3 ovarian): > 100 µM
TGI (SF-268 CNS): > 31.6 µM
TGI (OVCAR-4 ovarian): > 31.6 µM
TGI (SW-620 colon): > 31.6 µM
TGI (HCC-2998 colon): 19.8 µM
TGI (MDA-MB-231 breast): > 31.5 µM
TGI (K-562 leukemia): 23.1 µM
TGI (TK-10 renal): > 31.6 µM
TGI (UO-31 renal): > 64.4 µM
TGI (NCI/ADR-RES ovarian): > 100 µM
TGI (MOLT-4 leukemia): 21.5 µM
